The text below walks through data of US10112890B2, “Compound, salt of compound, external agent for skin, cosmetic, and food additive” (SHOWA DENKO K.K., priority 2015, dated 2018).

The subject of this data set is three-dimensionally cultured human skin model ("EPI-606X"). As to the kind of experiment: Skin permeability test. Particulars: 24 hours; for Permeability (%): permeability into the skin model, 0.2% by mass sample solution in PBS (-), pH 7.4, 700 μL, 37° C., skin model extract plus receiver liquid, HPLC, (A/1400)×100; for permeability compared with compound (9)-101 / permeability compared with sodium pantothenate: skin model, comparison in words. Format: in vitro ADME. From the text: The compound (1)-301, the compound (1)-302, the compound (9)-101, and sodium pantothenate (manufactured by Tokyo Kasei Kogyo Co., Ltd., the compound represented by the following formula) were respectively dissolved in Dubecco's PBS (−), and the pH of a solution was adjusted to 7.4 using a sodium hydroxide aqueous solution or hydrochloric acid, to obtain a solution having a concentration of 0.2% by mass as a sample solution. A three-dimensionally cultured human skin model (“EPI-606X”, manufactured by KURABO INDUSTRIES LTD.) was set such that the lower portion thereof was immersed in a 6-well plate containing the PBS solution (1 mL), and was allowed to stand in an incubator for 30 minutes under conditions of 37° C. at a carbon dioxide concentration of 5%. Next, the PBS solution was replaced with an HBSS (−) solution (1 mL) (hereinafter, referred to as a “receiver liquid”), the sample solution (700 μL) obtained in the above-described manner was added to the skin model, and the skin model was allowed to stand in an incubator under conditions of 37° C. at a carbon dioxide concentration of 5%. After the skin model was allowed to stand for 24 hours, the sample solution on the skin model was removed using a pipette, the skin model was taken out from the well and washed with the PBS (−) solution. Subsequently, a slice was cut from the skin model and put into a 2 mL tube. Methanol (1 mL) and stainless steel beads (manufactured by Tomy Company, Ltd., diameter of 5.5 mm) were added to the tube, and the slice was crushed under conditions of 2000 rpm for 10 seconds ten times using MULTI BEADS SHOCKER (manufactured by Yasui Kikai Corporation). After the slice was crushed, the obtained solution was transferred to a 2 mL Eppendorf tube and centrifuged at 12000 rpm for 5 minutes, the supernatant was filtered using a filter (pore size of 0.22 μm), thereby obtaining a skin model extract. Next, the compound (1)-301, the compound (1)-302, the compound (9)-101, and sodium pantothenate in the skin model extract and the receiver liquid were quantified by analyzing each of the compounds (test substances) using HPLC described above, and a total value A (μg) of these quantitative values was calculated. Further, the permeability into the skin model (%) of each of the compound (1)-301 (Example 1), the compound (1)-302 (Example 2), the compound (9)-101 (Reference Example 1), and sodium pantothenate (Comparative Example 1) added to the skin model was calculated according to Equation (i). Permeability (%)=(A/1400)×100 (i)

Take `CCCCCCCCCCCCCCCC(=O)OCC(C)(C)C(O)C(=O)NCCC(=O)O` (stereo not drawn) [Compound (1)-301, 3-[N-(4-hexadecanoyloxy-3,3-dimethyl-2-hydroxybutyryl)amino]propionic acid]: the “Permeability (%)” value is given as 41 ± 4.7%, the “permeability compared with compound (9)-101” value is reported as “clearly higher permeability” and the “permeability compared with sodium pantothenate” value is recorded as “clearly higher permeability”.

On to `CCCCCCCCC(CCCCCC)C(=O)OCC(C)(C)C(O)C(=O)NCCC(=O)O` (stereo not drawn) [Compound (1)-302, 3-[N-(4-(2-hexyldecanoyl)oxy-3,3-dimethyl-2-hydroxybutyryl)amino]propionic acid], for which the “Permeability (%)” value stood at 44 ± 2.7%, the “permeability compared with compound (9)-101” value is recorded as “clearly higher permeability” and the “permeability compared with sodium pantothenate” value was “clearly higher permeability”.

As for `CCCCCCCCCC(=O)OCC(C)(C)C(O)C(=O)NCCC(=O)O` (stereo not drawn) [Compound (9)-101, 3-[N-(4-decanoyloxy-3,3-dimethyl-2-hydroxybutyryl)amino]propionic acid, reference compound], the “Permeability (%)” value stood at 29 ± 0.8% and the “permeability compared with sodium pantothenate” value is “clearly higher permeability”.

For `CC(C)(CO)[C@@H](O)C(=O)NCCC(=O)[O-].[Na+]` [Sodium pantothenate, sodium pantothenate, reference compound], the “Permeability (%)” value is recorded as 18 ± 0.4%.
